# According to patent US6689756B2, “Treatment of neurological disease” (Integra LifeSciences Corporation, priority 2001, dated 2004):
# Experiment: oxygen carrying capacity of nutrient formulation
# Type: physicochemical
# Conditions: F44E formulations compared with the perfluorodecalin nutrient solution of Bell et al., Neurology 37:133, 1987
# From the text: where m and n or independently at least 1 and m+n equals 6 to 10. Preferably, the double bond is trans. One preferred poly-fluorinated, oxygen-carrying compound is trans-Bis-perfluorobutyl ethylene (m and n each equal 4), which is also known as F44E. F44E formulations have a 25% greater oxygen carrying capacity than that of a prior nutrient solution made with perfluorodecalin, Bell et al., Neurology 37:133, 1987. Formulations comprising F44E are less viscous and relatively easier to perfuse.
smiles,measurement,value
"FC(F)(F)C(F)(F)C(F)(F)C(F)(F)/C=C/C(F)(F)C(F)(F)C(F)(F)C(F)(F)F [F44E, trans-Bis-perfluorobutyl ethylene]",greater oxygen carrying capacity than that of a prior nutrient solution made with perfluorodecalin,25%
